These results are taken from publication PMC9321663, “The DevTox Germ Layer Reporter Platform: An Assay Adaptation of the Human Pluripotent Stem Cell Test” (Toxics, 2022).

Data set [1] concerns SOX17 (endoderm marker) in RUES2-GLR cells. Description: DevTox GLR-Endo assay: decrease in percent SOX17-positive cells (AEID 3094, Sox17_dn). To be noted: for Hit Call: Table S2, SOX17-positive cells, cutoff 3*bmad; for DevTox ACC: Table S2, percent SOX17-positive cells; for DevTox ACC / DevTox-GLR Endo ACC: 48 h exposure; for DevTox-GLR Endo ACC: activity concentration at cutoff, SOX17-positive cells; for HIT−CALL: tcpl plot AEID3094, COFF 20.3; for ga (winning model): tcpl plot AEID3094, gain parameter of winning curve fit (log concentration, µM axis); for ga (winning model) / tp (winning model): hit calls only; for MAX_MEAN: tcpl plot AEID3094, maximum mean response; for tp (winning model): tcpl plot AEID3094, top of winning curve fit (Hill or gain-loss); for hit call designation (in words): DevTox GLR-Endo prediction against developmental toxicant classification; for Emax / AC50: Homo sapiens; for AC50: read-out: ga (winning model), tcpl plot AEID3094, gain parameter of winning curve fit (log concentration, µM axis), hit calls only (converted). In outline:
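RUES2-GLR cells under endoderm differentiation exposed to test chemicals for 48 h in total, with 0.2% DMSO solvent control and SB431542 (1 µM) as developmental-toxicant control. Endpoints: decrease in total cell count and in percent SOX17-positive cells; n = 4 biological replicates minimum.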

For data set [2], the system named is RUES2-GLR cells. Description: in vitro. To be noted: for Emax: Homo sapiens, read-out: Cell Count % Max Inhibition.
Data set [3] deals with SOX17 (endoderm marker) in RUES2-GLR cells. Description: DevTox GLR-Endo assay: increase in percent SOX17-positive cells (AEID 3093, Sox17_up). In kind it is cell-based, human. As to conditions: for HIT−CALL: tcpl plot AEID3093, COFF 20.3; for Emax: Homo sapiens. On the procedure:
(§1) The total test chemical incubation period was 48 h.
(§2) (Supplementary Materials).

The subject of data set [4] is BRA (mesoderm marker) in RUES2-GLR cells. The data set is described as follows: DevTox GLR-Endo assay: increase in percent BRA-positive cells (AEID 3096, Bra_up). It counts as cell-based, human. To be noted: for HIT−CALL: tcpl plot AEID3096, COFF 0.774; for MAX_MEAN: tcpl plot AEID3096, maximum mean response; for MAX_MED: tcpl plot AEID3096, maximum median response. On the procedure: as §1, §2

Data set [5] has as its system o/c ratio in H9 embryonic stem cells. As to conditions: Teratogen Index, o/c ratio; cited from earlier work.
Data set [6] deals with SOX2 (ectoderm and pluripotency marker) in RUES2-GLR cells. The data set is described as follows: DevTox GLR-Endo assay: increase in percent SOX2-positive cells (AEID 3095, Sox2_up). As to conditions: for MAX_MEAN: tcpl plot AEID3095, maximum mean response; for MAX_MED: tcpl plot AEID3095, maximum median response.
For data set [7] the following is noted: cited from earlier work; for Development Toxicant Classification: Table S2; for Classification: developmental toxicant classification (Teratogen / Non-Teratogen) of reference and training chemicals, ref DOI per chemical: 10.1093/toxsci/kft239, 10.1093/toxsci/kfaa014, 10.1177/026119290203000204, 10.1038/s41598-020-59542-x; for DT Class.: developmental toxicant classification, chemicals common with quickPredict.

Where [8] appears, read: tcpl plot AEID3093, maximum mean response.
Where [9] appears, read: tcpl plot AEID3093, maximum median response.
The mark [10] stands for this setting: read-out: DevTox % Max Inhibition.
Setting [11] is: tcpl plot AEID3093, maximum mean response, read-out: MAX_MEAN.
[12] abbreviates: tcpl plot AEID3093, maximum median response, read-out: MAX_MED.

Where two headings read alike, the source gives them in different places. Some results are limits rather than exact numbers.

With `CCCCC(CC)COC(=O)c1ccccc1C(=O)O` (stereo not drawn) [MEHP], in data set [1], the “Hit Call” value is reported as “Positive”, the “DevTox ACC” value is listed as 76.3285 µM, the “DevTox-GLR Endo ACC” value is recorded as 76.33 µM and the “HIT−CALL” value came out at 1. Moreover, in data set [1], the “ga (winning model)” value is listed as 2.11, the MAX_MEAN turned out to be 65.4 Percent Activity and the “tp (winning model)” value worked out at 89.3. Moreover, the “DevTox % Max Inhibition” value in data set [1] (Table S2, percent SOX17-positive cells relative to DMSO) is 67.6802%. This compound yielded an MAX_MED in data set [1] (tcpl plot AEID3094, maximum median response) of 67.7 Percent Activity. Further, in data set [2], the “Cell Count ACC” value is 61.5464 µM and the “DevTox-GLR Endo CC” value is given as 61.55 µM. The “Cell Count % Max Inhibition” value in data set [2] (Table S2, cell count relative to DMSO) was determined as 76.1511%. Also, the “HIT−CALL” value in data set [3] stood at 0. This compound also had an MAX_MEAN in data set [3] (setting [8]) of 6.64 Percent Activity. Moreover, the MAX_MED in data set [3] (setting [9]) was 12.4 Percent Activity. In addition, in data set [4], the “HIT−CALL” value came out at 0, the MAX_MEAN was found to be 1.95 Percent Activity and the MAX_MED came to 1.69 Percent Activity. Moreover, in data set [5], the “quickPredict TI” value was 167 µM. Also, in data set [6], the MAX_MEAN is given as 1.85 Percent Activity and the MAX_MED turned out to be 1.77 Percent Activity.

Turning to `C[C@@H]1C[C@H]2[C@@H]3CCC4=CC(=O)C=C[C@]4(C)[C@@]3(F)[C@@H](O)C[C@]2(C)[C@@]1(O)C(=O)CO` [Dexamethasone], in data set [1], the “hit call designation (in words)” value was “borderline calls”, the “Hit Call” value is listed as “Negative”, the “DevTox ACC” value is over 200 µM and the “HIT−CALL” value is recorded as 1. Moreover, in data set [1], the “ga (winning model)” value was −6.88, the MAX_MEAN is 20.7 Percent Activity and the “tp (winning model)” value worked out at 41.8. Moreover, in data set [2], the “Cell Count ACC” value amounted to 13.83 µM, the “DevTox-GLR Endo CC” value is given as 13.83 µM and the “effect on cell count (in words)” value is reported as “significant cell loss that did not impact SOX17-positive populations”. Moreover, in data set [3], the “HIT−CALL” value is on record as 0. The compound also gave an MAX_MEAN in data set [3] (setting [8]) of −0.0942 Percent Activity. The compound further yielded an MAX_MED in data set [3] (setting [9]) of 0.457 Percent Activity. In data set [4], the “HIT−CALL” value was 0, the MAX_MEAN was 0.923 Percent Activity and the MAX_MED was 0.979 Percent Activity. Moreover, the “quickPredict TI” value in data set [5] is listed as 37.7 µM. Further, in data set [7], the “Development Toxicant Classification” value was “Positive”, the Classification entry is listed as “Teratogen” and the “DT Class.” value was “Pos”. In data set [6], this compound gave an MAX_MEAN of 0.622 Percent Activity and an MAX_MED of 0.482 Percent Activity.

For the compound `CO[C@H]1/C=C/O[C@@]2(C)Oc3c(C)c(O)c4c(O)c(c(/C=N/N5CCN(C)CC5)c(O)c4c3C2=O)NC(=O)/C(C)=C\C=C\[C@H](C)[C@H](O)[C@@H](C)[C@@H](O)[C@@H](C)[C@H](OC(C)=O)[C@@H]1C` [Rifampicin], in data set [1] (setting [10]), the Emax is 101%. Also, the Emax in data set [1] (read-out: MAX_MEAN) came out at 102%. Also, in data set [1] (read-out: MAX_MED), the Emax was 101%. In data set [1], the AC50 was 67.6 µM, the “Hit Call” value was “Positive”, the “DevTox ACC” value was 37.8542 µM and the “DevTox-GLR Endo ACC” value is recorded as 37.85 µM. Further, the “HIT−CALL” value in data set [1] was 1. Further, in data set [1] (read-out: tp (winning model)), the Emax was 108%. In data set [2], the Emax stood at 92.4%. Further, in data set [2] (human, 48 h), the “Cell Count ACC” value is 18.1066 µM and the “DevTox-GLR Endo CC” value is listed as 18.11 µM. For the same compound, the Emax in data set [3] (setting [11]) is 7.3%. In addition, the Emax in data set [3] (setting [12]) turned out to be 7.36%. In addition, in data set [3], the “HIT−CALL” value is 0. In addition, the “quickPredict TI” value in data set [5] was 2.46 µM. Further, in data set [7], the “Development Toxicant Classification” value was “Positive”, the Classification entry is given as “Teratogen” and the “DT Class.” value is on record as “Pos”. Also, in data set [6], the MAX_MEAN was determined as 0.548 Percent Activity and the MAX_MED was found to be 0.542 Percent Activity.

With `Cc1cn([C@H]2C=C[C@@H](CO)O2)c(=O)[nH]c1=O` [Stavudine], in data set [1], the “hit call designation (in words)” value is “false negative”, the “Hit Call” value was “Negative”, the “DevTox ACC” value was over 200 µM and the “HIT−CALL” value is given as 0. Further, the Emax in data set [1] (setting [10]) came to 11.4%. Further, the Emax in data set [1] (read-out: MAX_MEAN) was determined as 13.5%. Besides, the Emax in data set [1] (read-out: MAX_MED) came to 11.4%. The Emax in data set [1] (read-out: maximum observed effect level class (% max inhibition)) is 0 to 20%. For the same compound, in data set [2], the “effect on cell count (in words)” value was “significant decreases in cell count” and the Emax turned out to be 23.9%. In data set [2] (human, 48 h), the “Cell Count ACC” value is 90.2805 µM, the “DevTox-GLR Endo CC” value came to 90.28 µM and the “effect on cell count (in words)” value is “significant cell loss that did not impact SOX17-positive populations”. For the same compound, in data set [3] (setting [11]), the Emax stood at 8.07%. Also, the Emax in data set [3] (setting [12]) was determined as 10.6%. For the same compound, in data set [3], the “HIT−CALL” value is reported as 0. For the same compound, in data set [4], the “HIT−CALL” value is 1, the MAX_MEAN turned out to be 1.06 Percent Activity and the MAX_MED worked out at 1.06 Percent Activity. For the same compound, the “quickPredict TI” value in data set [5] is recorded as 32.5 µM. For the same compound, in data set [7], the “Development Toxicant Classification” value was “Positive”, the Classification entry is “Teratogen” and the “DT Class.” value is “Pos”. In data set [6], the MAX_MEAN is on record as 1.54 Percent Activity and the MAX_MED stood at 0.512 Percent Activity.

As to `CN(C)CCOC(c1ccccc1)c1ccccc1` [Diphenhydramine], the AC50 in data set [1] was 61.7 µM; in data set [6] (Homo sapiens, read-out: ga (winning model)) it was 631 µM. Moreover, the Emax in data set [1] (read-out: tp (winning model)) was 117%; in data set [2] it was 78.9%; in data set [3] (setting [11]) it was -0.267%; in data set [3] (setting [12]), -1.82%; in data set [6] (Homo sapiens, read-out: tp (winning model)), 2.12%. In data set [1], the “Hit Call” value was “Positive”. The “HIT−CALL” value in data set [1] came to 1; in data set [3], 0; in data set [4] it was 1. Also, the figures for the MAX_MEAN in data set [4] and in data set [6] were 1.61 Percent Activity and 2.92 Percent Activity, respectively. Besides, the MAX_MED in data set [4] turned out to be 1.58 Percent Activity; in data set [6], 1.57 Percent Activity. For the same compound, the “quickPredict TI” value in data set [5] is on record as 0.588 µM.
